# What was measured:
# [1] = test system: CTLL-2 cells; test: Substances tested directly on IL-2-dependent CTLL cells (no splenocyte supernatant; upper part of Table 2); assay type: cell-based; details: dilution 1/10
# [2] = test system: T cells from the spleen of C3H/HeJ mice; test: Induction of IL-2 production in ConA-activated spleen T cells; supernatants tested for growth of IL-2-dependent CTLL-2 cells; assay type: cell-based; details: supernatants of splenocytes incubated 48 hours with ConA and substance, dilution 1/10
# Method: For the purpose of establishing whether the activity of costimulation of the murine thymocytes on the part of the synthetic peptide is due, as in the case of human IL-1, to the induction of the production of IL-2, the following test was carried out.
# T cells from the spleen of C3H/HeJ mice, separated on nylon wool as reported by Julius, M. H. et al., Eur. J. Immunol. 3, 645 (1973), are incubated in duplicate for 48 hours at 37° C. in 1 ml of RPMI 1640 medium (GIBCO), supplemented by N-2-hydroxyethylpiperazine N'-2-ethanesulphonic acid (HEPES), L-glutamine, gentamycin, 10% bovine foetal serum and 2-mercaptoethanol (2.5×10^-5 M), in the presence of graduated concentrations (840-420-210 μg/ml) of the synthetic peptide 163-171 and of purified human IL-1B as standard, with the addition of concanavalin A (ConA) as costimulant.
# At the end of the period of incubation, the supernatant is separated from the culture and a determination is made of its capacity to promote the growth of CTLL-2 cells dependent upon IL-2 according to the method reported by Gillis S. M. et al. (J. Immunol. 120, 2027 (1978)).
# The mitogenic activity of IL-2 on CTLL-2 cells is measured, either by determining the number of cells after 24 hours of culturing or by means of the assessment of the incorporation of tritiated thymidine in the cells. […]
substance,measurement,setting,value
Human IL-1β: purified human IL-1B standard (Genzyme Boston Mass.),IL-2 (mU/ml),[1],1 mU/ml
same,Stimulation index + SE of CTLL cells,[1],0.93 ± 0.02
same,IL-2 (mU/ml),[2],38 mU/ml
same,Stimulation index + SE of CTLL cells,[2],15.27 ± 0.88
